Source: article doi:10.1101/757047v1 (biorxiv, 2019)

Tests used:
[1] = target: T1, SLK (Homo sapiens, UniProt Q9H2G2); test: TR-FRET binding displacement assay
[2] = target: T2, GAK (Homo sapiens, UniProt O14976); test: TR-FRET binding displacement assay
T2 sequence (O14976 12-347 limits assumed): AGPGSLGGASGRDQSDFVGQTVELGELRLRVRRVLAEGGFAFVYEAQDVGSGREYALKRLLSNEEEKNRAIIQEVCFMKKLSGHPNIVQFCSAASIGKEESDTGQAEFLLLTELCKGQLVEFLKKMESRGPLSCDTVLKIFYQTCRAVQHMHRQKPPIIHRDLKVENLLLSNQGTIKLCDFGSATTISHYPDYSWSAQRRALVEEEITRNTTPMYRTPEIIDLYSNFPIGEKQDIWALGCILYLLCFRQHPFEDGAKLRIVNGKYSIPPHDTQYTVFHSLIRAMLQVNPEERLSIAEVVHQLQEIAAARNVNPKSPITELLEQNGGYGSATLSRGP

[3] = target: T3, STK10 (Homo sapiens, UniProt O94804); test: TR-FRET binding displacement assay
T3 sequence (O94804 36-294 limits assumed): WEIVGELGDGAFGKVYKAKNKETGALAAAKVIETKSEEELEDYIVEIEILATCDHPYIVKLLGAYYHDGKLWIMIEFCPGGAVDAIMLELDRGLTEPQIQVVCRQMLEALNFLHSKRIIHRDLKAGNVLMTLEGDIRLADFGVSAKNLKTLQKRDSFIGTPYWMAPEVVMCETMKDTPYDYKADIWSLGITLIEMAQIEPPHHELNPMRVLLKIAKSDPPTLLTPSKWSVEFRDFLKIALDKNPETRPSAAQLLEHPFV

[4] = target: T4, full length GAK protein N-terminally fused with NanoLuc luciferase (Homo sapiens, UniProt O14976); test: nanoBRET cellular target engagement; type: cell-based
T4 sequence (O14976 2-1311): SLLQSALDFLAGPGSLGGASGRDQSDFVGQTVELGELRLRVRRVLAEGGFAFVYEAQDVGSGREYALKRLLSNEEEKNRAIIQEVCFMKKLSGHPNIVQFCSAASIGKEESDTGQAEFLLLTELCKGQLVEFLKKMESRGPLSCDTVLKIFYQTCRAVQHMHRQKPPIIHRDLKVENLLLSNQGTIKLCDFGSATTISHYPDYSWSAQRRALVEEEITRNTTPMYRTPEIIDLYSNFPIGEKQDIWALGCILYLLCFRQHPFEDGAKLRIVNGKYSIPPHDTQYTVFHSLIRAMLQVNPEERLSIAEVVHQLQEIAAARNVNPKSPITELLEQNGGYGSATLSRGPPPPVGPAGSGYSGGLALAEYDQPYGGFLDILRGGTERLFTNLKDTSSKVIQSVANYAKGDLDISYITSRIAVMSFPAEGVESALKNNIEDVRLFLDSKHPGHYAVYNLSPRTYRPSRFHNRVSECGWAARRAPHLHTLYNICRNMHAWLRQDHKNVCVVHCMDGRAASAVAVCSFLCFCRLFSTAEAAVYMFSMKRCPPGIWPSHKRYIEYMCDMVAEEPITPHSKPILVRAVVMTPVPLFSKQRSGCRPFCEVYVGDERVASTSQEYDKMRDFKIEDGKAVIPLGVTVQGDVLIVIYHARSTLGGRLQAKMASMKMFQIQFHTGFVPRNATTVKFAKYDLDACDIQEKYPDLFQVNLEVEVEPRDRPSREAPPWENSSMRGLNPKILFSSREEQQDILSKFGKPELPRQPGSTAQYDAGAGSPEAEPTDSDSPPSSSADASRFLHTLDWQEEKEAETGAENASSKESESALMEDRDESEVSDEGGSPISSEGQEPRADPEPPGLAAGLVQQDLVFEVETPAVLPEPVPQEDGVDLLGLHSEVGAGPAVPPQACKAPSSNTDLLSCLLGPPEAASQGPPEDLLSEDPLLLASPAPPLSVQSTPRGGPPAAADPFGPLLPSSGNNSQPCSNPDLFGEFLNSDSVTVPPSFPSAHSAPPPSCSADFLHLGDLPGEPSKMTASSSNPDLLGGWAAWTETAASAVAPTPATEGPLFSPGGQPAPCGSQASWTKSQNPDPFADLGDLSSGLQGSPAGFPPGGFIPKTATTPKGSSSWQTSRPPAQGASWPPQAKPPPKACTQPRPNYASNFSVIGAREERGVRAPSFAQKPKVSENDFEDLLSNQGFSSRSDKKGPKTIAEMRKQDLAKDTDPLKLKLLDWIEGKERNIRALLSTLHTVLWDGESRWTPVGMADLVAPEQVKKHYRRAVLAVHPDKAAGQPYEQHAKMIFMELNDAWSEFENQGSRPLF

[5] = target: T2, GAK; test: biochemical
[6] = target: T1, SLK; test: biochemical
[7] = target: T4, full length GAK protein N-terminally fused with NanoLuc luciferase; test: cell-based; set-up: species or system HEK293T
[8] = target: T3, STK10; test: biochemical
[9] = target: T4, full length GAK protein N-terminally fused with NanoLuc luciferase; test: cell-based; set-up: species or system HEK293T; remark: listed apart in the source
[10] = target: T3, STK10; test: biochemical; remark: listed apart in the source
[11] = target: T2, GAK; test: biochemical; remark: listed apart in the source
[12] = target: T1, SLK; test: biochemical; remark: listed apart in the source
[13] = ATP site tracer displacement, 16-point dose response

T1 sequence (Q9H2G2 34-292): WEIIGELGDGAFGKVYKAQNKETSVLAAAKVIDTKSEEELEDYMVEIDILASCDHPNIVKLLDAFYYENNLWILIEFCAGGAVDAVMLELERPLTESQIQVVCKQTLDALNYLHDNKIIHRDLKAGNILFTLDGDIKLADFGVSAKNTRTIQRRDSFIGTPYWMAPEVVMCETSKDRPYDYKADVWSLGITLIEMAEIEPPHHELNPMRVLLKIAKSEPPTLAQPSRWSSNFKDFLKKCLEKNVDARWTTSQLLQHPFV

SMILES	Ki [5] [nM]	Ki [6] [nM]	IC50 [7] [nM]	Ki [8] [nM]	IC50 [9] [nM]	Ki [10] [nM]	Ki [11] [nM]	Ki [12] [nM]	further results
COc1cc(Nc2ccnc3cc(C#N)ccc23)cc(OC)c1OC [compound 21, 21]	–	–	–	–	–	–	–	–	Ki [1]: 1100 nM; Ki [2, 13]: 2.7 nM; Ki [3]: 130 nM; IC50 [4]: 350 nM
COc1ccc2c(Nc3cc(OC)c(OC)c(OC)c3)ccnc2c1 [compound 22, 22]	–	–	–	–	–	–	–	–	Ki [1]: 13000 nM; Ki [2, 13]: 2.6 nM; Ki [3]: 1300 nM; IC50 ([4]; HEK293T cells, tracer displacement, n=[…] mean): 440 nM
C#Cc1cccc(Nc2ncnc3ccccc23)c1 [compound 54, 54]	170	23000	4500	10000	–	–	–	–	–
C#Cc1cccc(Nc2ncnc3ccc(C)cc23)c1 [compound 55, 55]	43	4300	3600	2600	–	–	–	–	–
C#Cc1cccc(Nc2ncnc3ccc(F)cc23)c1 [compound 56, 56]	70	8500	2000	5500	–	–	–	–	–
C#Cc1cccc(Nc2ncnc3cc(F)c(F)cc23)c1 [compound 57, 57]	85	3800	> 5000	2900	–	–	–	–	–
C#Cc1cccc(Nc2ncnc3ccc(Cl)cc23)c1 [compound 58, 58]	30	3900	> 5000	2800	–	–	–	–	–
C#Cc1cccc(Nc2ncnc3ccc(Br)cc23)c1 [compound 59, 59]	28	3400	> 5000	2500	–	–	–	–	–
C#Cc1cccc(Nc2ncnc3ccc(I)cc23)c1 [compound 60, 60]	44	4300	> 5000	3700	–	–	–	–	–
C#Cc1cccc(Nc2ncnc3ccc(C(F)(F)F)cc23)c1 [compound 61, 61]	150	3200	> 5000	3400	–	–	–	–	–
C#Cc1cccc(Nc2ncnc3cc(F)ccc23)c1 [compound 62, 62]	22	1200	4100	1200	–	–	–	–	–
C#Cc1cccc(Nc2ncnc3cc(Br)ccc23)c1 [compound 64, 64]	31	260	> 5000	290	–	–	–	–	–
C#Cc1cccc(Nc2ncnc3cc(I)ccc23)c1 [compound 65, 65]	20	180	> 5000	150	–	–	–	–	–
C#Cc1cccc(Nc2ncnc3cc(C(F)(F)F)ccc23)c1 [compound 66, 66]	88	1200	> 5000	1000	–	–	–	–	–
C#Cc1cccc(Nc2ncnc3ccc(C#N)cc23)c1 [compound 68, 68]	170	7900	> 5000	4700	–	–	–	–	–
C#Cc1cccc(Nc2ncnc3ccc(OC)cc23)c1 [compound 70, 70]	24	2800	2900	2200	–	–	–	–	–
C#Cc1cccc(Nc2ncnc3cc(OC)ccc23)c1 [compound 72, 72]	8.8	670	1200	460	–	–	–	–	–

The next lines start with results.

Ki [5] [nM]	Ki [6] [nM]	IC50 [7] [nM]	Ki [8] [nM]	IC50 [9] [nM]	Ki [10] [nM]	Ki [11] [nM]	Ki [12] [nM]	SMILES	further results
19	2700	1700	1500	–	–	–	–	C#Cc1cccc(Nc2ncnc3cc4c(cc23)OCO4)c1 [compound 73, 73]	–
–	–	–	–	> 5000	–	–	–	C#Cc1ccc(F)c(Nc2ncnc3cc(C#N)ccc23)c1 [compound 87, 4-((5-ethynyl-2-fluorophenyl)amino)quinazoline-7-carbonitrile]	Ki [1]: 560 nM; Ki [2]: 1200 nM; Ki [3]: 670 nM
–	–	–	–	> 5000	500	330	1100	C#Cc1cccc(Nc2ncnc3cc(C#N)ccc23)c1F [compound 88, 88]	–
–	–	–	–	> 5000	870	550	690	C#Cc1cc(Nc2ncnc3cc(C#N)ccc23)ccc1F [compound 89, 89]	–
–	–	–	–	> 5000	1600	320	6300	C#Cc1cc(Nc2ncnc3cc(C#N)ccc23)ccc1Cl [compound 90, 90]	–
–	–	–	–	> 5000	250	110	390	C#Cc1ccc(F)c(Nc2ncnc3cc(I)ccc23)c1 [compound 91, 91]	–
–	–	–	–	> 5000	270	93	860	C#Cc1cccc(Nc2ncnc3cc(I)ccc23)c1F [compound 92, 92]	–
–	–	–	–	> 5000	110	–	110	C#Cc1cc(Nc2ncnc3cc(I)ccc23)ccc1F [compound 93, 93]	–
–	–	–	–	> 5000	240	92	930	C#Cc1cc(Nc2ncnc3cc(I)ccc23)ccc1Cl [compound 94, 94]	–
–	–	–	–	> 5000	4900	190	4500	C#Cc1ccc(F)c(Nc2ncnc3ccc(I)cc23)c1 [compound 95, 95]	–
–	–	–	–	> 5000	6700	290	18000	C#Cc1cccc(Nc2ncnc3ccc(I)cc23)c1F [compound 96, 96]	–
–	–	–	–	> 5000	870	68	1600	C#Cc1cc(Nc2ncnc3ccc(I)cc23)ccc1F [compound 97, 97]	–
–	–	–	–	> 5000	1000	140	7100	C#Cc1cc(Nc2ncnc3ccc(I)cc23)ccc1Cl [compound 98, 98]	–
–	–	–	–	390	220	5.8	280	C#Cc1ccc(F)c(Nc2ncnc3cc(OC)c(OC)cc23)c1 [compound 99, 99]	–
–	–	–	–	400	250	–	670	C#Cc1cccc(Nc2ncnc3cc(OC)c(OC)cc23)c1F [compound 100, 100]	–
–	–	–	–	140	47	2.4	72	C#Cc1cc(Nc2ncnc3cc(OC)c(OC)cc23)ccc1F [compound 101, 101]	–
–	–	–	–	390	75	3.4	330	C#Cc1cc(Nc2ncnc3cc(OC)c(OC)cc23)ccc1Cl [compound 102, 102]	–
